{
  "source": "patent US20240058335A1",
  "about": "“METHODS FOR TREATMENT OF CANCER USING ABL INHIBITORS AND DRUGS TARGETING THE MEVALONATE PATHWAY” (Duke University, priority 2021, published 2024)",
  "assay_type_in_all_cases": "cell-based, human",
  "key": {"[1]": {"tested_on": "PC9 GR4 cells", "experiment": "Cell viability dose-response assay (CellTiter-Glo), IC50 calculation", "settings": "PC9 GR4; dose-response assay; read-out: Calculated IC50"}, "[2]": {"tested_on": "H358 cells", "experiment": "Cell viability dose-response assay (CellTiter-Glo), IC50 calculation", "settings": "H358; dose-response assay; read-out: Calculated IC50"}, "[3]": {"tested_on": "lung cancer cells (PC9, PC9 GR4, H460, H358)", "experiment": "Seahorse XF Analyzer Mito Stress Test (OCR: basal respiration, maximal respiration, ATP production)", "settings": "IC50 doses, 24 hours; PC9, PC9 GR4, H460, H358", "text": "(FIGS. 2A-2D) Seahorse XF Analyzer Mito Stress Test analysis of mitochondrial basal respiration, maximal respiration, and ATP production as measured by changes in oxygen consumption rate (OCR). […] (FIG. 2E) Mitochondrial basal respiration, maximal respiration, and ATP production as measured by Seahorse XF Analyzer's Mito Stress Test for PC9 cells harboring shRNAs against ABL1/ABL2 (shAA) and non-targeting control (shSCR). (FIGS. 2F-2G) Mitochondrial ROS (MitoROS) release as measured by FACS analysis of median fluorescent intensity (MFI) using Mitosox probe. […] Data are mean±SEM. […] Seahorse XF Analyzer Mito Stress Test analysis of mitochondrial basal respiration, maximal respiration, and ATP production as measured by changes in oxygen consumption rate (OCR) in the indicated lung cancer cells: (FIG. 8A) PC9; (FIG. 8B) PC9 GR4; (FIG. 8C) H460. […] Doses correspond to IC50 dose for each drug in the corresponding cell line. In each graph, for each of Basal Respiration, Maximal Respiration, and ATP production, data is shown from left to right for DMSO, GNF5, and Nilotinib. […] Cells were treated with IC50 doses for 24 hours (n=3). Data are mean±SEM. […] SEAHORSE MEASUREMENTS. Basal and maximal oxygen consumption rate and ATP production were measured using a Mito Stress test Kit and XF96 Extracellular Flux Analyzer (Seahorse Bioscience), according to manufacturer's instructions. Cells were plated in XF96 plates at 10,000 cells per well on Day 0. […] The plate was incubated in a non-CO2 incubator at 37° C. for 1 hr to equilibrate."}, "[4]": {"tested_on": "lung cancer cells (PC9, PC9 GR4, PC9 BrM3, H460, H358)", "experiment": "72 hr growth inhibition / cell viability assay with drug combinations and metabolite rescue", "settings": "PC9-BrM3, sub-therapeutic doses, 72 hrs"}},
  "data": [
    {"smiles": "O=C(NCCO)c1cccc(-c2cc(Nc3ccc(OC(F)(F)F)cc3)ncn2)c1", "note": "[GNF5]", "values": [
      {"measurement": "IC50", "setting": "[1]", "value": 10, "unit": "µM"},
      {"measurement": "IC50", "setting": "[2]", "value": 15, "unit": "µM"},
      {"measurement": "mitochondrial function (basal respiration, maximal respiration, ATP production; OCR)", "setting": "[3]", "value": "greatly decreased"},
      {"measurement": "cell survival in the presence of statins", "setting": "[4]", "value": "decreased cell survival"}
    ]}
  ]
}
